Experiments:
[1] = tested on: microsphere (micro-embolism) model; assay: Test Example 6: rat microsphere (micro-embolism) model; type: in vivo, Crl:CD(SD) rats; details: rats, oral 1.0 mg/kg once daily for 10 days (Compound 65 also 0.1 mg/kg); 2 weeks after surgery
Excerpt: According to the method of Ichiro Date et al. [Journal of Neuroscience Research 78; 442-453 (2004)], 8-week-old male Crl:CD(SD) rats were used. Animals were anesthetized with halothane and midline incision was made. Right carotid artery was separated and a thread was looped around the common carotid artery and external carotid artery. The pterygopalatine artery was temporarily clipped with an aneurysm clip. The blood flow through the common carotid artery and external carotid artery was temporarily interrupted and 0.1 mL of a microsphere suspension composed of microspheres dispersed in a 30% sucrose solution (1800 microspheres/0.1 mL) was injected into the common carotid artery. After injection of the suspension, the puncture of the injection needle was filled with instant glue while the blood flow was interrupted. The blood flow was then restored and the surgical wound was sutured. Neurological symptoms were observed the day following the surgery. The animals were assigned to each treated group at random with respect to the measurements of neurological symptoms, the decrease in body weight from the previous day, and the body weight on that day.
The test compounds used were Example Compound 65, 108, 130, 135 and 137, each of which was administered at a dose of 1.0 mg/kg. Example Compound 65 was administered also at a dose of 0.1 mg/kg. Each compound was orally administered once daily for 10 days starting from the following day of the surgery. Coordinated motor functions were measured 5 times on an accelerated rota-rod (4 to 40 rpm/5 min) 2 weeks after the surgery.
Specifically, FIGS. 11 to 15 show the effect of different compounds 2 weeks after the microsphere injection (rota-rod test standard parameter). The figures show the results of rota-rod tests 2 weeks after the ischemic event in which each compound was orally administered at 1.0 mg/kg once daily for 10 days (Example Compound 65 was administered at 0.1 mg/kg or 1.0 mg/kg). What is shown in the figures is the total time of the 5 measurements on rota-rod as a standard parameter.
***: p<0.0001, Dunnett's multiple range test vs. Vehicle.

[2] = Repeated oral administration toxicity in rats; type: in vivo; details: orally administered repeatedly once a day for one week, 150 mg/kg/day
[3] = tested on: spinal cord neurons; assay: Test Example 3: ability to promote the neurite outgrowth of spinal cord neurons; type: cell-based, Wistar rats; details: Compound Conc. = 0.1 μM; % of control, day 3
Procedure: According to the method of Martin G. Hanson Jr. [J. Neurosci., 1998 Sep. 15; 18(18): 7361-71], the spinal cord region was isolated from 15-day embryos of female Wistar rats and the cells were dispersed using the papain dissociation system. Neurons were collected using 6.8% Metrizamide density gradient and were suspended in 2% FBS+Leibovitz's −15 medium so that the density of the cells will be 2×10^3 cells/well/200 μL. 200 μL of the cell suspension was inoculated on a poly-D-lysine/laminin-coated 96 well plate and the plate was incubated in an incubator at 37° C. Test compounds were added 1 hour after seeding of cells.
On day 3 of the incubation period, neurons were stained with Calcein-AM and the lengths of neurites were determined using IN Cell Analyzer (GE Healthcare Bioscience).
The ability (%) of each test compound to promote neurite outgrowth was calculated from the following equation: The ability to promote neurite outgrowth (%)=[(measurement with a compound of interest)/(measurement of control)]×100
Example Compounds 65, 71, 74, 92, 130 and 135 were used as test compounds and were each added at a concentration of 0.1 μM.
The results are shown in Table 27. bFGF gives a measurement of about 130 in this test.

[4] = molecular target: T1, chemokine receptor CCR3 (Homo sapiens, UniProt P51677); assay: Affinity to chemokine receptor CCR3; type: binding; details: at a concentration of 10 μM
T1 sequence (P51677 1-355): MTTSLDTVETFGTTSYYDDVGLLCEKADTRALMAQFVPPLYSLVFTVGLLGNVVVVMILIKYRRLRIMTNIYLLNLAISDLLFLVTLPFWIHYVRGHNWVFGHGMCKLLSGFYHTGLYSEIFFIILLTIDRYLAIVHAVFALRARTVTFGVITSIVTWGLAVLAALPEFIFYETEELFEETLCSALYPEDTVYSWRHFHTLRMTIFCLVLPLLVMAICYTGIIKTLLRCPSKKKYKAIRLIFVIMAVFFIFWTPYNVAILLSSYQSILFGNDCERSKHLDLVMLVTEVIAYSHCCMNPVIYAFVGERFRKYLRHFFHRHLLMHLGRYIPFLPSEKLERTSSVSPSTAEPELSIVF
Excerpt: Although the compounds of the present invention are novel compounds, compounds having a partly similar skeleton are described, for example, in Published Japanese Translation of PCT International Application No. 2003-507456, WO 01/79170 and WO 00/23076.

[5] = tested on: mixture of human vascular endothelial cells and fibroblasts; assay: Test Example 2: ability to promote angiogenesis (angiogenesis test kit KZ-1000); type: cell-based; details: Homo sapiens, 216 h; Compound Conc. = 3 μM; lumen length, % of control, day 9; read-out: Promotion of angiogenesis (%)
Procedure, shortened: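 Co-culture of human endothelial cells and fibroblasts; compound added on days 1, 4 and 7, CD31 immunostaining on day 9. Lumen length quantified from images and expressed as % of untreated control; 120 used as activity threshold.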

SMILES: Cc1nc(OCC(=O)N(C)C2CCN(Cc3ccccc3)CC2)nc(C)c1N [Compound 65, 2-(5-amino-4,6-dimethylpyrimidine-2-yloxy)-N-(1-benzylpiperidine-4-yl)-N-methylacetamide]
- coordinated motor functions, total time of 5 measurements on rota-rod [1]: highly effective in ameliorating ischemic cerebral infarction
- toxicity [2]: did not exhibit toxicity
- Promotion of spinal cord neurite outgrowth (%) [3]: 135%
- affinity to chemokine receptor CCR3 [4]: 0.0%
- activity at 3 µM [5]: 170%
